Reference: patent US11078168B2, “Substituted N-hydroxyamidinoheterocycles as modulators of indoleamine 2,3-dioxygenase” (PHENEX DISCOVERY VERWALTUNGS-GMBH, priority 2016, dated 2021)

Target: T1, Indoleamine 2,3-dioxygenase (Homo sapiens, UniProt P14902)
T1 construct: endogenous in cells; host or cells: SKOV-3 (ATCC HTB-77), stimulated with interferon gamma
Test: SKOV-3 cellular Indoleamine 2,3-dioxygenase assay
Settings: SKOV-3 cells, 50 ng/ml Interferon gamma, 100 μM L-Tryptophan, 24 hours, N-Formylkynurenin fluorescence detection; read-out: cell based activity
Experimental: SKOV-3 cellular Indoleamine 2,3-dioxygenase assay
SKOV-3 cells were obtained from the American Type Culture Collection (ATCC® HTB-77™) and maintained in McCoy's medium (Pan Biotech) supplemented with 10% fetal bovine serum and 1% Penicilin/Streptomycin. Cells were kept at 37° C. in a humidified incubator with 5% CO2. For assay preparation, cells were seeded at a density of 2*10^5/ml into black clear bottom 96 well plates in 100 μl medium/well supplemented with 50 ng/ml Interferon gamma (eBioscience, Thermo Fisher Scientific). After cells fully adhered to the plate, dilution series of compounds were added in medium containing additional L-Tryptophan to a final L-Tryptophan concentration of 100 μM. The cells were incubated for 24 hours. Detection of produced N-Formylkynurenin was performed by addition of 3-Methylpiperidine to a final concentration of 200 mM. The plates were sealed and heated to 65° C. for 20 minutes in a water bath. After cooling the fluorescence of each well was recorded with a Victor™X4 (PerkinElmer) plate reader at an emission wavelength of 535 nm and excitation at 405 nm (Tomek et al.; Anal Bioanal Chem (2013) 405:2515-2524., Tomek et al.; Biochim Biophys Acta. 2015 September; 1850(9):1772-80).

T1 sequence (P14902 whole entry): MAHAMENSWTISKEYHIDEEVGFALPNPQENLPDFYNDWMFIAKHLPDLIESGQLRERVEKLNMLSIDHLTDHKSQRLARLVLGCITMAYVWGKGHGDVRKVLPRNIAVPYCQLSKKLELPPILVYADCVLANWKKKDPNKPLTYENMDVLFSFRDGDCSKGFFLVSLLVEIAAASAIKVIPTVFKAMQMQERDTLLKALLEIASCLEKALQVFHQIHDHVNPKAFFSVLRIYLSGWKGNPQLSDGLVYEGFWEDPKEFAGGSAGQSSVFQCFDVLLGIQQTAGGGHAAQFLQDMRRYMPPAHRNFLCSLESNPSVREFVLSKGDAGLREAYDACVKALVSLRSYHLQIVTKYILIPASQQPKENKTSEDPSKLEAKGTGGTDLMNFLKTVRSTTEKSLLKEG

Structure (SMILES) | IC50
Cc1nnc(CCCOc2nonc2C(=NO)Nc2ccc(F)c(Cl)c2)[nH]1 [Example 12, N-(3-Chloro-4-fluorophenyl)-N′-hydroxy-4-(3-(5-methyl-4H-1,2,4-triazol-3-yl)propoxy)-1,2,5-oxadiazole-3-carboximidamide] | 100 to 1000 nM
CC(CNS(N)(=O)=O)Oc1nonc1C(=NO)Nc1ccc(F)c(Cl)c1 (single isomer, unassigned) [Example 16, N-(3-Chloro-4-fluorophenyl)-N′-hydroxy-4-((1-(sulfamoylamino)propan-2-yl)oxy)-1,2,5-oxadiazole-3-carboximidamide] | > 1000 nM
O=C(O)CCOc1nonc1C(=NO)Nc1ccc(F)c(Cl)c1 [Example 13, 3-((4-(N-(3-Chloro-4-fluorophenyl)-N′-hydroxycarbamimidoyl)-1,2,5-oxadiazol-3-yl)oxy)propanoic acid] | > 1000 nM
O=C(NCCSc1nonc1C(=NO)Nc1ccc(F)c(Cl)c1)c1ccc(C(O)(C(F)(F)F)C(F)(F)F)cc1 [117/4] | 100 to 1000 nM
O=C(NCCOc1nonc1C(=NO)Nc1ccc(F)c(Cl)c1)N1C[C@@H](O)[C@@H](O)C1 [Example 18, (3S,4R)—N-(2-((4-(N-(3-Chloro-4-fluorophenyl)-N′-hydroxycarbamimidoyl)-1,2,5-oxadiazol-3-yl)oxy)ethyl)-3,4-dihydroxypyrrolidine-1-carboxamide] | 100 to 1000 nM
CC(C)(C(=O)O)C(=O)NCCOc1nonc1C(=NO)Nc1ccc(F)c(Cl)c1 [9/11] | > 1000 nM
NS(=O)(=O)CC(=O)NCCOc1nonc1C(=NO)Nc1cccc(C(F)(F)F)c1 [9/20] | 100 to 1000 nM
C[S+]([O-])NCCOc1nonc1C(=NO)Nc1ccc(F)c(Cl)c1 (stereo not shown) [1/4] | 100 to 1000 nM
NS(=O)(=O)NCCOc1nonc1C(=NO)Nc1cccc(C(F)F)c1 [6/3] | 100 to 1000 nM
CC(CN)Oc1nonc1C(=NO)Nc1ccc(F)c(Cl)c1 (stereo not shown) [Example 17, 4-((1-Aminopropan-2-yl)oxy)-N-(3-chloro-4-fluorophenyl)-N′-hydroxy-1,2,5-oxadiazole-3-carboximidamide] | 100 to 1000 nM
NC(=O)C(=O)NCCOc1nonc1C(=NO)Nc1ccc(F)c(Cl)c1 [Example 4, N^1-(2-((4-(N-(3-Chloro-4-fluorophenyl)-N′-hydroxycarbamimidoyl)-1,2,5-oxadiazol-3-yl)oxy)ethyl)oxalamide] | 100 to 1000 nM
N#CC1(C(=O)NCCSc2nonc2C(=NO)Nc2ccc(F)c(C(F)F)c2)CNC1 [Example 125, 3-Cyano-N-(2-((4-(N-(3-(difluoromethyl)-4-fluorophenyl)-N′-hydroxycarbamimidoyl)-1,2,5-oxadiazol-3-yl)thio)ethyl)azetidine-3-carboxamide] | 100 to 1000 nM
[O-][S+](c1nonc1C(=NO)Nc1ccc(F)c(Br)c1)C1CC1 (stereo not shown) [109/2] | 100 to 1000 nM
Cn1nc(C(=O)NCCSc2nonc2C(=NO)Nc2cccc(C(F)(F)F)c2)[nH]c1=O [117/18] | 100 to 1000 nM
CN(C)C(=O)C(=O)NCCOc1nonc1C(=NO)Nc1ccc(F)c(Cl)c1 [9/19] | 100 to 1000 nM
O=C(NCCCOc1nonc1C(=NO)Nc1ccc(F)c(Cl)c1)c1nn[nH]n1 [9/8] | > 1000 nM
Nc1c(NCC[S+]([O-])c2nonc2C(=NO)Nc2ccc(F)c(Cl)c2)c(=O)c1=O (stereo not shown) [Example 109, 4-((2-((2-Amino-3,4-dioxocyclobut-1-en-1-yl)amino)ethyl)sulfinyl)-N-(3-chloro-4-fluorophenyl)-N′-hydroxy-1,2,5-oxadiazole-3-carboximidamide] | 100 to 1000 nM
O=C(NCCSc1nonc1C(=NO)Nc1ccc(F)c(Cl)c1)c1n[nH]c(=O)[nH]1 [117/1] | 100 to 1000 nM
Nc1nnc(NCCSc2nonc2C(=NO)Nc2ccc(F)c(C(F)F)c2)[nH]1 [Example 110, 4-((2-((5-Amino-4H-1,2,4-triazol-3-yl)amino)ethyl)thio)—N-(3-(difluoromethyl)-4-fluorophenyl)-N′-hydroxy-1,2,5-oxadiazole-3-carboximidamide] | 100 to 1000 nM
O=C(NCCSc1nonc1C(=NO)Nc1ccc(F)c(C(F)F)c1)c1ccc(C(O)(C(F)(F)F)C(F)(F)F)cc1 [107/20] | 100 to 1000 nM
COc1nonc1C(=NO)Nc1ccc(F)c(Cl)c1 [8/2] | 100 to 1000 nM
CC(CNS(N)(=O)=O)Oc1nonc1C(=NO)Nc1ccc(F)c(Cl)c1 (single isomer, unassigned) [16/1, N-(3-Chloro-4-fluorophenyl)-N′-hydroxy-4-((1-(sulfamoylamino)propan-2-yl)oxy)-1,2,5-oxadiazole-3-carboximidamide] | > 1000 nM
CN(CCOc1nonc1C(=NO)Nc1ccc(F)c(Cl)c1)C(=O)CS(N)(=O)=O [9/22] | 100 to 1000 nM
O=C(NCCSc1nonc1C(=NO)Nc1ccc(F)c(Cl)c1)C1(O)CNC1 [Example 123, N-(2-((4-(N-(3-Chloro-4-fluorophenyl)-N′-hydroxycarbamimidoyl)-1,2,5-oxadiazol-3-yl)thio)ethyl)-3-hydroxyazetidine-3-carboxamide] | 100 to 1000 nM
CS(=N)(=O)c1ccc(C(=O)NCCSc2nonc2C(=NO)Nc2ccc(F)c(C(F)F)c2)cc1 (stereo not shown) [Example 122, N-(2-((4-(N-(3-(Difluoromethyl)-4-fluorophenyl)-N′-hydroxycarbamimidoyl)-1,2,5-oxadiazol-3-yl)thio)ethyl)-4-(S-methylsulfonimidoyl)benzamide] | < 100 nM
NS(=O)(=O)CC(=O)NCCSc1nonc1C(=NO)Nc1cc(Br)c(F)cc1F [117/22] | < 100 nM
NS(=O)(=O)CC(=O)NCCSc1nonc1/C(=N/O)Nc1cccc(Br)c1 [107/4] | < 100 nM

Next, values leading:

IC50 | Structure (SMILES)
< 100 nM | NS(=O)(=O)C1(C(=O)NCCSc2nonc2C(=NO)Nc2ccc(F)c(C(F)F)c2)CC1 [117/21]
< 100 nM | CSc1nonc1/C(=N/O)Nc1ccc(F)c(Br)c1 [Example 103/1, N-(3-bromo-4-fluorophenyl)-N′-hydroxy-4-(methylthio)-1,2,5-oxadiazole-3-carboximidamide]
< 100 nM | NC(=O)C(F)(F)C(=O)NCCSc1nonc1C(=NO)Nc1ccc(F)c(C(F)F)c1 [Example 118]
< 100 nM | NS(=O)(=O)CC(=O)NCCSc1nonc1C(=NO)Nc1ccc(F)c(Br)c1F [117/23]
< 100 nM | CS(=O)(=O)CCC(=O)NCCSc1nonc1C(=NO)Nc1cccc(Cl)c1 [107/39]
< 100 nM | CC(CSc1nonc1C(=NO)Nc1ccc(F)c(C(F)F)c1)NC(=O)CC(N)=O (single isomer, unassigned) [Example 115/1, N^1-(1-((4-(N-(3-(difluoromethyl)-4-fluorophenyl)-N′-hydroxycarbamimidoyl)-1,2,5-oxadiazol-3-yl)thio)propan-2-yl)malonamide]
< 100 nM | NS(=O)(=O)NCCOc1nonc1/C(=N/O)Nc1ccc(F)c(Cl)c1 [6/1]
< 100 nM | N#Cc1cc(N/C(=N\O)c2nonc2SCCNC(=O)CS(N)(=O)=O)ccc1F [107/3]
< 100 nM | NC(=O)CNS(=O)(=O)NCCSc1nonc1C(=NO)Nc1ccc(F)c(C(F)F)c1 [119/6]
< 100 nM | NS(=O)(=O)NCCSc1nonc1/C(=N/O)Nc1ccc(F)c(Br)c1 [Example 101, N-(3-Bromo-4-fluorophenyl)-N′-hydroxy-4-((2-(sulfamoylamino)ethyl)thio)-1,2,5-oxadiazole-3-carboximidamide]
< 100 nM | NS(=O)(=O)CCC(=O)NCCSc1nonc1C(=NO)Nc1cccc(Cl)c1 [107/15]
< 100 nM | CS(=N)(=O)CC(=O)NCCSc1nonc1C(=NO)Nc1ccc(F)c(C(F)F)c1 (stereo not shown) [127/1]
< 100 nM | Nc1c(NCCOc2nonc2C(=NO)Nc2cccc(C(F)(F)F)c2)c(=O)c1=O [2/6]
< 100 nM | NS(=O)(=O)CC(=O)NCCSc1nonc1/C(=N/O)Nc1cccc(C(F)F)c1 [117/19]
< 100 nM | NS(=O)(=O)NCCOc1nonc1/C(=N/O)Nc1ccc(F)c(Br)c1 [Example 6, N-(3-Bromo-4-fluorophenyl)-N′-hydroxy-4-(2-(sulfamoylamino)ethoxy)-1,2,5-oxadiazole-3-carboximidamide]
< 100 nM | C[C@@H](CSc1nonc1C(=NO)Nc1ccc(F)c(C(F)F)c1)NC(=O)CCS(N)(=O)=O (single isomer, unassigned) [114/3]
< 100 nM | O=C(NCCSc1nonc1C(=NO)Nc1ccc(F)c(C(F)F)c1)c1ccc(C(F)(F)F)cc1 [107/23]
< 100 nM | O=C(CCCC[C@@H]1SC[C@@H]2NC(=O)N[C@@H]21)NCCSc1nonc1C(=NO)Nc1ccc(F)c(Cl)c1 [107/18]
< 100 nM | Nc1c(NCCSc2nonc2C(=NO)Nc2ccc(F)c(Cl)c2)c(=O)c1=O [Example 102, 4-((2-((2-Amino-3,4-dioxocyclobut-1-en-1-yl)amino)ethyl)thio)—N-(3-chloro-4-fluorophenyl)-N′-hydroxy-1,2,5-oxadiazole-3-carboximidamide]
< 100 nM | COC1(C(=O)NCCSc2nonc2C(=NO)Nc2ccc(F)c(C(F)F)c2)CNC1 [123/2]
< 100 nM | CS(=O)(=O)CCC(=O)NCCSc1nonc1C(=NO)Nc1cccc(Br)c1 [107/40]
< 100 nM | NC(=O)CCS(=O)(=O)NCCSc1nonc1C(=NO)Nc1ccc(F)c(C(F)F)c1 [119/5]
< 100 nM | NS(=O)(=O)NCCOc1nonc1C(=NO)Nc1ccc(F)c(C(F)F)c1 [6/2]
< 100 nM | CS(=O)(=O)c1ccc(C(=O)NCCSc2nonc2C(=NO)Nc2ccc(F)c(C(F)F)c2)cc1 [107/24]
< 100 nM | CS(=O)(=O)CC(=O)NCCOc1nonc1C(=NO)Nc1ccc(F)c(Cl)c1 [9/15]
